What was measured:
Format in all cases: cell-based
[1] = tested on: LPS-activated human microglia; assay: LPS-induced TNF-alpha gene transcription in human microglia (qRT-PCR); details: LPS 1 μg/ml, 24 hours; for LPS-induced gene transcription of TNF-alpha: 0.15 μM, 0.5 μM and 1.5 μM, FIG. 3; for Anti-inflammatory effect on TNF-alpha of LPS-activated human microglia: summary of Example 4
Procedure: To analyse whether polysialic acid might interfere with a pro-inflammatory phenotype of human microglia, cultured human microglia were activated with lipopolysaccharides (LPS) and the effect of the distinct sialic acid forms including fractions of oligosialic and polysialic acid on the gene transcription of the pro-inflammatory cytokine tumor necrosis factor-alpha induced by the bacterial toxin LPS was determined. A human microglial line derived from induced pluripotent stem cells as described in WO 2010/125110 was used to study the effect of sialic acid forms with different chain length. Human microglial cells were cultured on 5 μg/ml poly-L-lysin (PLL, Sigma)-coated dishes in N2-medium containing DMEM/F12 culture medium (Gibco) supplemented with 1% N2 (Invitrogen), 0.48 mM L-glutamine (Gibco) and optionally 100 μg/ml penicillin/streptomycin (Gibco). Cells were cultured with high density and splitted 1:2 when required. The human induced pluripotent stem cell derived microglia line was treated with lipopolysaccharides (LPS, 1 μg/ml, Invivogen) and sialic acid forms with different chain length for 24 hours. Gene transcripts for tumor necrosis factor-α (TNF-alpha) were determined by quantitative RT-PCR and normalized to GAPDH. In detail, RNA isolation was performed using RNeasy Mini Kit (Qiagen) and transcription with the SuperScript First-Strand Synthesis System (Invitrogen). Quantitative RT-PCR with specific oligonucleotides (GAPDH: […] (SEQ ID NO: 1) and […] (SEQ ID NO: 2); TNFα: […] (SEQ ID NO: 3) and […] (SEQ ID NO: 4)) was performed using SYBR green PCR Master Mix with the Mastercycler epgradients S (Eppendorf). Results were normalized to GAPDH. Quantification using the delta-CT method was carried out.

[2] = tested on: human microglial line derived from induced pluripotent stem cells (expressing Siglec-11); assay: MTT cell viability of human microglia treated with sialic acid forms; details: for metabolic activity of the microglial cells (MTT, normalized to cell number): 24 hours treatment, 0.15 μM, 0.5 μM and 1.5 μM, FIG. 2B; for Intact viability of human microglia: summary of Example 3, MTT, 24 hours
Procedure: A human microglial line derived from induced pluripotent stem cells as described in WO 2010/125110 was used to study the effect of sialic acid forms with different chain length. Human microglial cells were cultured on 5 μg/ml poly-L-lysin (PLL, Sigma)-coated dishes in N2-medium containing DMEM/F12 culture medium (Gibco) supplemented with 1% N2 (Invitrogen), 0.48 mM L-glutamine (Gibco) and optionally 100 μg/ml penicillin/streptomycin (Gibco). Cells were cultured with high density and splitted 1:2 when required.
The effect of different length and fractions of oligosialic acids and polysialic acids on the human microglial lines were analyzed by determination of cell viability normalized to the cell number and after treatment with monomeric sialic acid (SA, molecular weight of 0.3 kDa, Nacalai Tesque ING, Japan) and sialic acids consisting of 3 monomers (Tri-SA; molecular weight of 0.9 kDa, Nacalai Tesque ING, Japan) and sialic acids consisting of 6 monomers (Hexa-SA; molecular weight of 1.9 kDa, Nacalai Tesque ING, Japan), PSA with a number of sialic acid monomers between 14 and 26 (PSA-20; low molecular weight of PSA between 4.3 and 8 kDa for >90% of the substance) and PSA with a length between 46 and 110 of sialic acid monomers (PSA-60; medium molecular weight of PSA between 14.2 and 34 kDa for >90% of the substance).
The microglial cells were cultured in medium as described above and treated in culture with the different sialic acid forms.
Cell viability was determined by the MTT (3-(4,5-Dimethylthiazol-2-yl)-2,5-diphenyltetrazolium bromide, Millipore) assay after 24 hours treatment with distinct sialic acid forms with different chain length and normalized to the cell number. The light absorbance of the purple formazan in living cells was determined by a spectrophotometer at a wavelength of 570 nm (Perkin Elmer, Envision Multiplate Reader).

[3] = tested on: human microglial cells stimulated with fibrillary amyloid-β1-42; assay: Amyloid-β1-42 induced superoxide release of human microglia (DHE); details: repeat, FIG. 4B; PSA-20 1.5 μM; Trolox 40 μM; SOD1 20 μg/ml; Aβ 10 μM
Procedure: The human microglial cell line was treated with human Alzheimer's disease associated fibrillary amyloid-beta peptide (Aβ) to mimic inflammatory signalling of Alzheimer's disease brain tissue. To obtain fibrillary components of Aβ, the synthetic amyloid-beta peptide (amyloid-beta 1-42, Bachem/Brucker, 10 μM) was preincubated at 37° C. for at least three days. The human microglial cells were treated with the different concentrations of 0.15 μM, 0.5 μM, or 1.5 μM of low molecular weight polysialic acid (PSA-20) for 60 minutes followed by incubation for 15 minutes with fibrillary Aβ. Then, 30 μM dihydroethidium (DHE) was added and incubated at 37° C. for 15 minutes for measurement of superoxide anion radical production. Cells were fixed with 4% paraformaldehyde plus 0.25% glutaraldehyde and analyzed by confocal microscopy. For the quantification of DHE staining intensity six pictures of each experiment were obtained and analyzed by ImageJ software (NIH). The background was subtracted and the mean values of the staining intensities were compared. Cells were fixed and the intensity of DHE was quantified by confocal microscopy.
To confirm the specificity of the DHE measurement, the determination of the effect of PSA-20 on superoxide production in human microglial cells was repeated. As a control the radical scavenger Trolox, a water-soluble vitamin E analogue, was added to the system. Furthermore, as additional control superoxide dismutase-1 (SOD1) was added into the medium. Superoxide should no longer be detectable by the DHE dye after successful transformation of superoxide by SOD1.
Human microglial cells were cultured alone and production of reactive oxygen species was analyzed after treatment with the Alzheimer's disease plaques associated fibrillary amyloid-β1-42. To measure the relative production of superoxide by the microglial cells, cells were plated in 4-chamber culture dishes. After 24 hours human microglial cells were treated with 1.5 μM of low molecular weight polysialic acid (PSA-20) for 60 minutes followed by incubation for 15 minutes with 10 μM fibrillary amyloid-β1-42. Control dishes were treated with either 1.5 μM PSA-20 and 40 μM Trolox or 1.5 μM PSA-20 and 20 μg/ml superoxide dismutase-1 (SOD1, Serva). Then, cells were washed 2-times with Krebs-HEPES-buffer and afterwards incubated for 15 minutes with 30 μM DHE solution (diluted in Krebs-HEPES-buffer). Finally cells were washed 2-times with Krebs-HEPES-buffer and fixed for 15 minutes with 0.25% glutaraldehyde and 4% PFA. In total, six images were randomly collected per experimental group by confocal laser scanning microscopy (Fluoview 1000, Olympus). All cells of the collected images were analyzed by Image J software (NIH).

human microglial cells = assay: Phagocytosis associated oxidative burst: neural debris triggered superoxide release (DHE); details: control experiment; 40 μM Trolox or 20 μg/ml SOD1
Procedure: To measure the relative production of superoxide by the microglial cells, human microglial cells were plated in 4-chamber culture dishes. After 24 hours cells were treated with 5 mg/ml neural debris for 15 minutes with or without 1 hour PSA-20 pre-incubation at concentrations of 0.15 μM, 0.5 μM or 1.5 μM. Then, cells were washed 2-times with Krebs-HEPES-buffer. To detect the release of superoxide the cells were afterwards incubated for 15 minutes with 30 μM superoxide-sensitive fluorescent dye dihydroethidium (DHE) solution diluted in Krebs-HEPES-buffer. Finally cells were washed 2-times with Krebs-HEPES-buffer and fixed for 15 minutes with 0.25% glutaraldehyde and 4% PFA. In total, six images were randomly collected per experimental group by confocal laser scanning microscopy (Fluoview 1000, Olympus). All cells of the collected images were analyzed by Image J software (NIH).
To confirm the effect, Trolox as scavenger of superoxide and superoxide dismutase-1 (SOD1) as modifier of superoxide were used in a control experiment as described above using 1.5 μM of PSA-20 but adding either 40 μM Trolox or 20 μg/ml (SOD1) into the medium. […] As can be taken from the FIG. 9C, the radical scavenger Trolox and the superoxide dismutase SOD1 neutralized the neural debris triggered superoxide release and as controls confirmed that DHE detected an extracellular production of superoxide.

| Compound | LPS-induced gene transcription of TNF-alpha [1] | Anti-inflammatory effect on TNF-alpha of LPS-activated human microglia [1] | metabolic activity of the microglial cells (MTT, normalized to cell number) [2] | Intact viability of human microglia [2] | amyloid-β1-42 induced stimulation of the superoxide production [3] | neural debris triggered superoxide release (human microglial cells) |
| --- | --- | --- | --- | --- | --- | --- |
| CC(=O)N[C@H]1[C@H]([C@H](O)[C@H](O)CO)OC(O)(C(=O)O)C[C@@H]1O (stereo partly drawn) [SA, N-acetylneuraminic acid] | did not significantly change | No | did not affect the metabolic activity | Yes | – | – |
| Cc1c(C)c2c(c(C)c1O)CCC(C)(C(=O)O)O2 (stereo not drawn) [Trolox, 6-hydroxy-2,5,7,8-tetramethylchroman-2-carboxylic acid, reference compound] | – | – | – | – | scavenged | neutralized |
| SOD1: superoxide dismutase-1 (Serva), added to the medium as a control | – | – | – | – | neutralized | neutralized |
| α2.8-polysialic acid [PSA-180] | no significant anti-inflammatory effect | No | significantly reduced | No | – | – |

— US9944721B2, “Polysialic acid and use for treatment of neurodegenerative and neuroinflammatory diseases” (RHEINISCHE FRIEDRICH-WILHELMS UNIVERSITÄT BONN, priority 2013, dated 2018)
